Results taken from ChEMBL document CHEMBL5385932, “Highly Concentrated Linear Guanidine Amides from the Marine Sipunculid Phascolosoma granulatum” (J Nat Prod, 2024).
The source made the active and inactive calls. The calls are words filed in the database; no cut-off is given here.

What was measured:
[1] = tested on: HepG2; assay: Cytotoxicity against human HepG2 cells assessed as effect on cell viability at 20 ug/ml by MTT assay; format: functional, cell-based; details: dose 20.0 µg/ml
[2] = tested on: Aspergillus fumigatus; assay: Antifungal activity against Aspergillus fumigatus ATCC46645 assessed as effect on fungal growth at 64 ug/ml; format: functional, organism-based; details: dose 64.0 µg/ml
[3] = tested on: Artemia salina; assay: Toxicity in brine shrimp assessed as lethality at 500 uM measured after 24 to 48 hrs by microscopy; format: organism-based; details: in vivo, time 24-48 hrs
[4] = tested on: Nakaseomyces glabratus; assay: Antifungal activity against Candida glabrata ATCC2001 assessed as effect on fungal growth at 64 ug/ml; format: functional, organism-based; details: dose 64.0 µg/ml
[5] = tested on: Candida tropicalis; assay: Antifungal activity against Candida tropicalis ATCC750 assessed as effect on fungal growth at 64 ug/ml; format: functional, organism-based; details: dose 64.0 µg/ml
[6] = tested on: MCF7; assay: Cytotoxicity against human MCF7 cells assessed as effect on cell viability at 20 ug/ml by MTT assay; format: functional, cell-based; details: dose 20.0 µg/ml
[7] = tested on: Acinetobacter baumannii; assay: Antibacterial activity against Acinetobacter baumannii ATCC19606 assessed as effect on bacterial growth at 64 ug/ml; format: functional, organism-based; details: dose 64.0 µg/ml
[8] = tested on: Candida parapsilosis; assay: Antifungal activity against Candida parapsilosis ATCC22019 assessed as effect on fungal growth at 64 ug/ml; format: functional, organism-based; details: dose 64.0 µg/ml
[9] = tested on: A549; assay: Cytotoxicity against human A549 cells assessed as effect on cell viability at 20 ug/ml by MTT assay; format: functional, cell-based; details: dose 20.0 µg/ml
[10] = tested on: MIA PaCa-2; assay: Cytotoxicity against human MIA PaCa-2 cells assessed as effect on cell viability at 20 ug/ml by MTT assay; format: functional, cell-based; details: dose 20.0 µg/ml
[11] = tested on: A2058; assay: Cytotoxicity against human A2058 cells assessed as effect on cell viability at 20 ug/ml by MTT assay; format: functional, cell-based; details: dose 20.0 µg/ml
[12] = tested on: Pichia kudriavzevii; assay: Antifungal activity against Candida krusei ATCC6258 assessed as effect on fungal growth at 64 ug/ml; format: functional, organism-based; details: dose 64.0 µg/ml
[13] = tested on: Escherichia coli; assay: Antibacterial activity against Escherichia coli ATCC25922 assessed as effect on bacterial growth at 64 ug/ml; format: functional, organism-based; details: dose 64.0 µg/ml
[14] = tested on: Candida albicans; assay: Antifungal activity against Candida albicans ATCC64124 assessed as effect on fungal growth at 64 ug/ml; format: functional, organism-based; details: dose 64.0 µg/ml
[15] = tested on: Staphylococcus aureus; assay: Antibacterial activity against methicillin-susceptible Staphylococcus aureus ATCC29213 assessed as effect on bacterial growth at 64 ug/ml; format: functional, organism-based; details: dose 64.0 µg/ml

| Structure (SMILES) | Activity [1] | Activity [2] | Activity [3] | Activity [4] | Activity [5] | Activity [6] | Activity [7] | Activity [8] | Activity [9] | Activity [10] | Activity [11] | Activity [12] | Activity [13] | Activity [14] | Activity [15] |
| --- | --- | --- | --- | --- | --- | --- | --- | --- | --- | --- | --- | --- | --- | --- | --- |
| CC(C)CC[C@@H](C)C(=O)NCCCCNC(=N)N.O=C(O)C(F)(F)F | inactive | inactive | Non-Toxic | inactive | inactive | inactive | inactive | inactive | inactive | inactive | inactive | inactive | inactive | inactive | inactive |
| CC(C)C[C@H](O)CC/C=C\CNC(=O)CCNC(=N)N.O=C(O)C(F)(F)F | inactive | – | Non-Toxic | – | – | inactive | – | – | inactive | inactive | inactive | – | – | – | – |
| C/C(=C/CCC(C)C)C(=O)NCCCCNC(=N)N.O=C(O)C(F)(F)F | inactive | inactive | Non-Toxic | inactive | inactive | inactive | inactive | inactive | inactive | inactive | inactive | inactive | inactive | inactive | inactive |
| CC(C)CC[C@@H](C)C(=O)N(C)CCCCNC(=N)N.O=C(O)C(F)(F)F | inactive | inactive | Non-Toxic | inactive | inactive | inactive | inactive | inactive | inactive | inactive | inactive | inactive | inactive | inactive | inactive |
| CC(C)CC(=O)N(C)CCCCNC(=N)N.O=C(O)C(F)(F)F | inactive | – | Non-Toxic | – | – | inactive | – | – | inactive | inactive | inactive | – | – | – | – |
| CC(C)CC[C@@H](C)C(=O)NCCCNC(=N)N.O=C(O)C(F)(F)F | inactive | inactive | Non-Toxic | inactive | inactive | inactive | inactive | inactive | inactive | inactive | inactive | inactive | inactive | inactive | inactive |
